Like-named read-outs stand apart in the source and are kept apart here. A value given as a limit tells only on which side of the number the result lay.

The values below come from PMC9416004, “A Versatile Class of 1,4,4-Trisubstituted Piperidines Block Coronavirus Replication In Vitro” (Pharmaceuticals, 2022).

The subject of one data set is HCoV-229E. Briefly: Cytopathic effect (CPE) reduction assay with HCoV-229E in HEL cells. Type of data set: cell-based, human coronavirus 229E. The note with it: for EC50: Human coronavirus 229E, 120 h, HCoV-229E-infected HEL cells, five days at 35 °C; for Selectivity Index Microscopy: ratio of MCC to EC50-microscopy; for Selectivity Index Microscopy / Selectivity Index MTS: only values of 10 or higher shown; for Selectivity Index MTS: ratio of CC50 to EC50-MTS.

The test system of data set [1] is human embryonic lung (HEL) fibroblast cells. The settings on record: mock-infected HEL cells; microscopically visible alterations in cell morphology.
The nature of another data set: in vitro. The settings on record: human.
Where [2] appears, read: protection against virus-induced CPE by MTS cell viability assay, read-out: Antiviral EC50 MTS.
Where [3] appears, read: protection against virus-induced CPE by microscopic scoring, read-out: Antiviral EC50 Microscopy.

With `COc1ccc(CC(NC(=O)OC(C)(C)C)C(=O)N(Cc2ccccc2)C2(C(=O)NCc3ccccc3)CCN(Cc3ccccc3)CC2)cc1` (stereo not shown) [Compound 51, Tert-butyl(1-(benzyl(1-benzyl-4-benzylcarbamoylpiperidin-4-yl)amino)-3-(4-methoxyphenyl)-1-oxopropan-2-yl)carbamate], the EC50 in the data set on HCoV-229E (setting [2]) worked out at 4.8 ± 0.4 µM; with HCoV-229E (setting [3]), 8.2 ± 1.9 µM. In addition, in the data set on HCoV-229E, the “Selectivity Index Microscopy” value was at least 12. The “Cytotoxicity MCC (minimal cytotoxic concentration)” value (“Cytotoxicity MCC” for short) in data set [1] is at least 100 µM. In the data set “in vitro”, the CC50 is over 100 µM.
For the compound `COC(=O)C[C@H](NC(=O)OC(C)(C)C)C(=O)N(C)C1(C(=O)NCc2ccccc2)CCN(Cc2ccccc2)CC1` [Compound 19], the EC50 was over 100 µM in the data set on HCoV-229E (setting [2]) and 14 ± 1 µM in the data set on HCoV-229E (setting [3]). Moreover, in data set [1], the “Cytotoxicity MCC” value came to 100 µM. Besides, in the data set “in vitro”, the CC50 was 18 ± 2 µM.
In the case of `COC(=O)C[C@H](N)C(=O)N(Cc1ccccc1)C1(C(=O)NCc2ccccc2)CCN(Cc2ccccc2)CC1` [Compound 32], the EC50 in the data set on HCoV-229E (setting [2]) is 62 ± 7 µM; in the data set with HCoV-229E (setting [3]), 55 ± 3 µM. Besides, in data set [1], the “Cytotoxicity MCC” value was over 100 µM. Besides, in the data set “in vitro”, the CC50 is over 100 µM.
As to `COC(=O)C[C@H](NC(=O)OCc1ccccc1)C(=O)N(C1CC1)C1(C(=O)NCc2ccccc2)CCN(Cc2ccccc2)CC1` [Compound 37], the EC50 in the data set on HCoV-229E (setting [2]) is over 100 µM; with HCoV-229E (setting [3]), 3 ± 0.1 µM. Moreover, the “Cytotoxicity MCC” value in data set [1] amounted to 11 µM. This compound had a CC50 in “in vitro” of 3.6 ± 0.1 µM.
In the case of `COC(=O)C[C@H](NC(=O)OC(C)(C)C)C(=O)N(Cc1ccc(C(F)(F)F)cc1)C1(C(=O)NCc2ccccc2)CCN(Cc2ccccc2)CC1` [Compound 24], the EC50 in the data set on HCoV-229E (setting [2]) is 4.2 ± 1 µM; in the data set on HCoV-229E (setting [3]) it was 3.1 µM. In data set [1], the “Cytotoxicity MCC” value stood at 25 µM. Moreover, the CC50 in the data set “in vitro” is 11 ± 1 µM.
In the case of `CC(C)(C)OC(=O)N[C@@H](Cc1ccc(O)cc1)C(=O)N(Cc1ccccc1)C1(C(=O)NCc2ccccc2)CCN(Cc2ccccc2)CC1` [Compound 48], the EC50 in the data set with HCoV-229E (setting [2]) is 9.3 µM; in the data set with HCoV-229E (setting [3]), 11 ± 1 µM. Also, the “Selectivity Index MTS” value in the data set with HCoV-229E is on record as over 11. The “Cytotoxicity MCC” value in data set [1] is on record as over 100 µM. The CC50 in the data set “in vitro” was over 100 µM.
For `COC(=O)C[C@H](NC(=O)OC(C)(C)C)C(=O)N(Cc1ccc([N+](=O)[O-])cc1)C1(C(=O)NCc2ccccc2)CCN(Cc2ccccc2)CC1` [Compound 23], the figures for the EC50 with HCoV-229E (setting [2]) and in the data set on HCoV-229E (setting [3]) were 4 ± 0.6 µM and 3.1 µM, respectively. Also, in the data set on HCoV-229E, the “Selectivity Index MTS” value is given as 12. For the same compound, the “Selectivity Index Microscopy” value in the data set with HCoV-229E was found to be 24. The “Cytotoxicity MCC” value in data set [1] is 75 µM. In “in vitro”, this compound yielded a CC50 of 49 ± 6 µM.
Regarding `COC(=O)C[C@H](NC(=O)OC(C)(C)C)C(=O)N(Cc1ccc(F)cc1)C1(C(=O)NCc2ccccc2)CC[N+](C)(Cc2ccccc2)CC1` (stereo partly shown) [Compound 8], the EC50 in the data set on HCoV-229E (setting [2]) and in the data set on HCoV-229E (setting [3]) was over 100 µM throughout. In data set [1], the “Cytotoxicity MCC” value was over 100 µM. The CC50 in the data set “in vitro” was over 100 µM.
Regarding `COC(=O)C[C@H](NC(=O)OC(C)(C)C)C(=O)N(Cc1ccc(F)cc1)C1(C(=O)NCc2ccccc2)CCN(CCc2ccccc2)CC1` [Compound 11], the EC50 came out at 4.4 ± 0.8 µM in the data set on HCoV-229E (setting [2]) and 3.2 ± 0.1 µM with HCoV-229E (setting [3]). The “Selectivity Index Microscopy” value in the data set on HCoV-229E is reported as 31. The “Cytotoxicity MCC” value in data set [1] is listed as 100 µM. For the same compound, the CC50 in the data set “in vitro” worked out at 38 ± 2 µM.
As to `COC(=O)C[C@H](NC(=O)OC(C)(C)C)C(=O)N(C1CC1)C1(C(=O)NCc2ccccc2)CCN(Cc2ccccc2)CC1` [Compound 21], the results for the EC50 in the data set with HCoV-229E (setting [2]) and in the data set with HCoV-229E (setting [3]) were over 100 µM and 12 ± 0.4 µM, respectively. Moreover, the “Cytotoxicity MCC” value in data set [1] is recorded as 50 µM. The CC50 in the data set “in vitro” came to 14 ± 3 µM.
For `CC(C)(C)OC(=O)NCC(=O)N(Cc1ccccc1)C1(C(=O)NCc2ccccc2)CCN(Cc2ccccc2)CC1` [Compound 39], in that order: 15 ± 2 µM, 11 µM, 100 µM and 49 ± 1 µM.
Take `COC(=O)C[C@H](NC(=O)OCc1ccccc1)C(=O)N(CCNc1ccccc1)C1(C(=O)NCc2ccccc2)CCN(CCc2ccccc2)CC1` [Compound 58, Methyl(S)-4-((4-benzylcarbamoyl-1-phenethylpiperidin-4-yl)(2-(phenylamino)ethyl)amino)-3-benzyloxycarbonylamino-4-oxobutanoate]: the EC50 in the data set with HCoV-229E (setting [2]) came out at 5.4 ± 1.4 µM; in the data set on HCoV-229E (setting [3]), 7.9 ± 1.9 µM. The “Cytotoxicity MCC” value in data set [1] came to 24 µM. For the same compound, the CC50 in “in vitro” was 20 ± 4 µM.
For `COC(=O)C[C@H](NC(=O)OC(C)(C)C)C(=O)N(Cc1ccccc1F)C1(C(=O)NCc2ccccc2)CCN(Cc2ccccc2)CC1` [Compound 26], the EC50 came out at 15 ± 2 µM in the data set with HCoV-229E (setting [2]) and 12 ± 1 µM with HCoV-229E (setting [3]). Further, the “Cytotoxicity MCC” value in data set [1] is 100 µM. This compound also gave a CC50 in the data set “in vitro” of 44 ± 1 µM.
Consider `COC(=O)C[C@H](NC(=O)OC(C)(C)C)C(=O)N(Cc1ccccc1)C1(C(=O)NC(C)(C)C)CCN(Cc2ccccc2)CC1` [Compound 15, Methyl(S)-4-(benzyl(1-benzyl-4-tert-butylcarbamoylpiperidin-4-yl)amino)-3-tert-butoxycarbonylamino-4-oxobutanoate], for which the EC50 with HCoV-229E (setting [2]) and with HCoV-229E (setting [3]) was 25 µM each time. The “Cytotoxicity MCC” value in data set [1] is listed as over 100 µM. In “in vitro”, the CC50 stood at 78 ± 7 µM.
With `CC(C)(C)OC(=O)N[C@@H](Cc1ccc(F)cc1)C(=O)N(Cc1ccccc1)C1(C(=O)NCc2ccccc2)CCN(Cc2ccccc2)CC1` [Compound 49, Tert-butyl(S)-(1-(benzyl(1-benzyl-4-benzylcarbamoylpiperidin-4-yl)amino)-3-(4-fluorophenyl)-1-oxopropan-2-yl)carbamate], the EC50 in the data set with HCoV-229E (setting [2]) is 8.4 µM. Further, in the data set with HCoV-229E (setting [3]), the EC50 turned out to be 10 µM. Besides, in the data set with HCoV-229E, the “Selectivity Index MTS” value is over 12 and the “Selectivity Index Microscopy” value is at least 10. In data set [1], the “Cytotoxicity MCC” value is given as at least 100 µM. Also, the CC50 in the data set “in vitro” is over 100 µM.
Regarding `COC(=O)C[C@H](NC(=O)OC(C)(C)C)C(=O)N(CCNc1ccccc1)C1(C(=O)NCc2ccccc2)CCN(Cc2ccccc2)CC1` [Compound 29], the EC50 was 3.2 ± 0.4 µM in the data set with HCoV-229E (setting [2]) and 3 ± 0.1 µM in the data set on HCoV-229E (setting [3]). In addition, the “Selectivity Index MTS” value with HCoV-229E is given as 11. The “Selectivity Index Microscopy” value with HCoV-229E amounted to 25. Moreover, the “Cytotoxicity MCC” value in data set [1] was 75 µM. This compound also displayed a CC50 in “in vitro” of 36 ± 9 µM.
`COC(=O)C[C@H](NC(=O)OC(C)(C)C)C(=O)N(Cc1ccc(F)c(F)c1)C1(C(=O)NCc2ccccc2)CCN(Cc2ccccc2)CC1` [Compound 28]: the EC50 in the data set on HCoV-229E (setting [2]) was 3.7 ± 1 µM; in the data set with HCoV-229E (setting [3]), 6 ± 2.6 µM. The “Cytotoxicity MCC” value in data set [1] is on record as 44 µM. For the same compound, in the data set “in vitro”, the CC50 was 23 ± 11 µM.
For `COC(=O)C[C@H](NC(=O)OCc1ccccc1)C(=O)N(Cc1ccccc1)C1(C(=O)NCc2ccccc2)CCN(CCc2ccc(C)cc2)CC1` [Compound 54, Methyl(S)-4-(benzyl(4-benzylcarbamoyl-1-(4-methylphenethyl)piperidin-4-yl)amino)-3-benzyloxycarbonylamino-4-oxobutanoate] the same measures were 8.4 ± 0.5 µM, 10 µM, 40 µM and 24 ± 2 µM.
Consider `COC(=O)C[C@H](NC(=O)OC(C)(C)C)C(=O)N(Cc1ccc(F)cc1)C1(C(=O)NCc2ccccc2)CCN(Cc2ccccc2)CC1` [Compound 2], for which, in the data set on HCoV-229E (setting [2]), the EC50 amounted to 7.4 ± 2.5 µM. The EC50 in the data set with HCoV-229E (setting [3]) turned out to be 7.8 ± 2.7 µM. In the data set on HCoV-229E, the “Selectivity Index MTS” value is on record as 6 and the “Selectivity Index Microscopy” value is given as 13. In addition, in data set [1], the “Cytotoxicity MCC” value is 100 µM. Besides, in the data set “in vitro”, the CC50 was found to be 44 ± 8 µM.
For the compound `CC(C)(C)OC(=O)NC(Cc1ccc(Cl)cc1)C(=O)N(Cc1ccccc1)C1(C(=O)NCc2ccccc2)CCN(Cc2ccccc2)CC1` (stereo not shown) [Compound 50, Tert-butyl(1-(benzyl(1-benzyl-4-benzylcarbamoylpiperidin-4-yl)amino)-3-(4-chlorophenyl)-1-oxopropan-2-yl)carbamate], the EC50 in the data set on HCoV-229E (setting [2]) is 9.7 ± 0.4 µM; in the data set with HCoV-229E (setting [3]) it was 10 µM. In addition, the “Selectivity Index MTS” value in the data set with HCoV-229E is on record as at least 10. The “Selectivity Index Microscopy” value in the data set on HCoV-229E is on record as at least 10. The “Cytotoxicity MCC” value in data set [1] is reported as at least 100 µM. The compound further registered a CC50 in “in vitro” of over 100 µM.
Regarding `COC(=O)C[C@H](NC(=O)OCC1c2ccccc2-c2ccccc21)C(=O)N(Cc1ccccc1)C1(C(=O)NCc2ccccc2)CCN(Cc2ccccc2)CC1` [Compound 35], the EC50 was 26 ± 9 µM with HCoV-229E (setting [2]) and 36 ± 14 µM with HCoV-229E (setting [3]). For the same compound, the “Cytotoxicity MCC” value in data set [1] is on record as over 100 µM. For the same compound, the CC50 in the data set “in vitro” is over 100 µM.
For `CC(C)(C)OC(=O)N[C@@H](CC(=O)O)C(=O)N(Cc1ccccc1)C1(C(=O)NCc2ccccc2)CCN(Cc2ccccc2)CC1` [Compound 44] the same measures were over 100 µM, over 100 µM, over 100 µM and over 100 µM.
Regarding `COC(=O)C[C@H](NC(=O)OC(C)(C)C)C(=O)N(Cc1ccc(F)cc1)C1(C(=O)NCc2ccccc2)CCN(C2CCCCC2)CC1` [Compound 6], the EC50 with HCoV-229E (setting [2]) is 14 ± 1 µM; in the data set with HCoV-229E (setting [3]), 22 ± 9 µM. The “Cytotoxicity MCC” value in data set [1] is given as 100 µM. In the data set “in vitro”, the CC50 amounted to 85 ± 9 µM.
Turning to `CC(C)(C)OC(=O)NC(Cc1ccccc1)C(=O)N(Cc1ccccc1)C1(C(=O)NCc2ccccc2)CCN(Cc2ccc(Cl)cc2)CC1` (stereo not shown) [Compound 61, Tert-butyl(1-(benzyl(4-benzylcarbamoyl-1-(4-chlorobenzyl)piperidin-4-yl)amino)-1-oxo-3-phenylpropan-2-yl)carbamate], the EC50 worked out at 30 ± 7 µM with HCoV-229E (setting [2]) and 36 ± 9 µM with HCoV-229E (setting [3]). Moreover, the “Cytotoxicity MCC” value in data set [1] is over 100 µM. The CC50 in the data set “in vitro” was over 100 µM.
